Laboratory results taken from patent publication US20110172182A1, “Carboxyethylated Cyclodextrin Polysulfates Useful As Medicaments” (ARCARIOS B.V., priority 2008, published 2011).

Columns and labels:
[1] = system: normal pooled plasma; experiment: Blood coagulation activities (aPTT, PT, fibrinogen) in normal pooled plasma; set-up: species or system human; details: after incubation with 50 or 100 μg/ml
Description: MA-CDPS, HP-CDPS, CE-CDPS and CDPS (as defined in examples 3-4 and characterised in table 1) were prepared as buffered solutions at various concentrations. The polysaccharides were incubated with normal pooled plasma prepared out of 40 healthy volunteers and analyzed for their effects on activated partial thromboplastin time (aPTT), prothrombin time (PT) and fibrinogen levels on a STA Compact® coagulation analyzer (available from Diagnostica Stago, Asnieres, France) according to the manufacturers instructions.

[2] = system: healthy donor thrombocytes; experiment: Platelet activation (CD62p, flow cytometry) by HIT patient anti-heparin/PF4 antibodies; type: cell-based, human; details: for ratio: % CD62p+ (with substance)/% CD62p+ (without) / ΔCD62p+ %: percentage increases in CD62p positive platelets: 0.3 IU heparin or 5 μg/ml polysaccharide
Description: The activation of healthy donor thrombocytes by HIT patient anti-heparin/PF4 antibodies in the presence of heparin and the differently sulfated forms of β-cyclodextrin was tested. […] The expression of CD62p by the activated platelets was assayed by means of flow cytometry with a FC500 analyzer (available from Beckman Coulter, Belgium). Platelet-rich plasma solution (PRP) was prepared by slow centrifugation (10 minutes at 180 g) of fresh citrate anti-coagulated blood (1:9 v/v, 0.129 mol/L or 3.8% trisodium citrate buffer), obtained from normal donors. HIT Ab positive plasma samples from patients and HIT Ab negative control plasma from healthy donors were prepared by double centrifugation (15 minutes at 2230 rpm) of fresh citrate anti-coagulated blood. 70 μl of PRP was incubated with 20 μL of HIT Ab containing plasma optionally in the presence of heparin (0.3 IU/ml) or the relevant β-cyclodextrin derivative (5 μg/ml). Experiments with each HIT Ab positive plasma sample were repeated independently using thrombocytes of 2 donors (A and B), to avoid the possibility of non-reactive platelets.
Following the initial 40 minutes incubation step, 5 μl of the platelets solution was transferred to a fresh tube with 85 μL phosphate buffered saline (PBS) containing 1% bovine serum albumin (BSA) and 0.1% Na-azide, 5 μl (0.25 μg) monoclonal anti-CD41 antibodies (Ab) (phycoerythrin-Texas Red Energy coupled dye (ECD)-conjugated, Beckman Coulter) and 5 μl (0.125 μg) of anti-CD62p Ab (phycoerythrin (PE)-conjugated, Beckman Coulter). CD41 (Glycoprotein […]) is a selective marker of platelets and platelet precursors. CD62p is a constituent of alpha granules and is released to the platelet surface on activation.
After 20 minutes of incubation at room temperature, the total volume of the platelet suspension was adjusted to 600 μL buffered solution and evaluated without delay by flow cytometry. 20,000 events per sample were analysed and the platelet populations were gated by side scatter characteristics and the platelet marker CD41. The fraction of activated platelets among the total platelet population was determined and relative CD62p ratios to the internal controls were calculated. [ratio: % CD62p^+ (0.3 IU Heparine or 5 μg/ml β-cyclodextrin derivative)/% CD62p^+ (0 IU Heparine or 0 μg/ml β-cyclodextrin derivative)]. Test results for the heparin treated platelets were evaluated by the scoring system described in Thromb. Haemost. (1999) 82:1255-1259. Control tests were scored positive when the calculated ratios of at least 2 donors were more then 2, based on previously obtained results with normal individuals. To evaluate the potential of the different β-cyclodextrin derivatives to induce platelet activation, both the percentages and ratios of CD62p^+ platelets after incubation with the respective β-cyclodextrin were statistically compared to the percentage and the ratio of CD62p^+ platelets after heparin incubation.

[3] = system: C57BI/6 male mice; experiment: Collagenase-induced knee osteoarthritis in mice, histopathology; type: in vivo
Description: Knee osteoarthritis was induced by injecting the right knees of adult (10 weeks) C57BI/6 male mice with 10 μl of a 2 U/μl collagenase type VII (Sigma C-9572, available from Sigma-Aldrich Belgium) solution. The left knee of these animals was injected with 10 μl PBS and served as a control. Two groups of each 8 mice were randomized on weight, the first group was injected subcutaneously once weekly, with 1 mg/kg of the CE-CDPS of example 3, the second group was treated with saline. Treatment was initiated three days after the mice received their intra-articular injection. The animals were fed a standard diet with tap water ad libitum and their weight was recorded twice a week. The mice were sacrificed three weeks after induction of knee osteoarthritis and the liver, kidneys and knee joints were fixed immediately in 2% neutral buffered paraformaldehyde (Fluka 76240, available from Sigma-Aldrich Belgium).
After fixation, knee joints were decalcified in 0.5 M EDTA in PBS and embedded in paraffin. 5μ tissue sections were cut and stained with haematoxylin and eosin for an analysis of the general morphology or with safranin-O for an assessment of proteoglycan content. Each 100 μm, 3 sections of the joint were evaluated.
Stained slides were submitted for evaluation. The following parameters were evaluated: synovial inflammation, fibrosis, osteophytes and erosion of cartilage. Synovial inflammation was graded from 0 to +3 as follows: 0 no changes from normal; +1 mild changes; +2 moderate changes; and +3 severe changes.
Fibrosis was scored as follows: 0 no changes from normal; +1 fibrosis without metaplasia; +2 fibrosis associated with chondroplasia; +3 fibrosis associated with metaplastic bone. Osteophytes were graded from 0 to +4 referring to the amount of osteophytes observed, with a maximum score of 1 per compartment.
Cartilage erosion was graded from 0 to +3 as follows: 0 no changes from normal; +1 only superficial erosion; +2 loss of proteoglycan in one compartment; and +3 loss of proteoglycan in different compartments. In this scoring system the femoral/tibial junction as a whole was taken in consideration by 2 independent investigators.

[4] = HIT ab plasma pat1, platelet donor dA
[5] = HIT ab plasma pat1, platelet donor dB
[6] = HIT ab plasma pat2, platelet donor dA
[7] = HIT ab plasma pat2, platelet donor dB
[8] = HIT ab plasma pat3, platelet donor dA
[9] = HIT ab plasma pat3, platelet donor dB
[10] = HIT ab plasma pat4, platelet donor dA
[11] = HIT ab plasma pat4, platelet donor dB
[12] = in the presence of plasma samples of individuals that had developed HIT Ab
[13] = 1 mg/kg subcutaneously once weekly, OA knees

Substance	fibrinogen concentrations [1]	ratio: % CD62p+ (with substance)/% CD62p+ (without) [2, 4]	ΔCD62p+ %: percentage increases in CD62p positive platelets [2, 4] [%]	ratio: % CD62p+ (with substance)/% CD62p+ (without) [2, 5]	ΔCD62p+ %: percentage increases in CD62p positive platelets [2, 5] [%]	ratio: % CD62p+ (with substance)/% CD62p+ (without) [2, 6]	ΔCD62p+ %: percentage increases in CD62p positive platelets [2, 6] [%]	ratio: % CD62p+ (with substance)/% CD62p+ (without) [2, 7]	ΔCD62p+ %: percentage increases in CD62p positive platelets [2, 7] [%]	ratio: % CD62p+ (with substance)/% CD62p+ (without) [2, 8]	ΔCD62p+ %: percentage increases in CD62p positive platelets [2, 8] [%]	ratio: % CD62p+ (with substance)/% CD62p+ (without) [2, 9]	ΔCD62p+ %: percentage increases in CD62p positive platelets [2, 9] [%]	ratio: % CD62p+ (with substance)/% CD62p+ (without) [2, 10]	ΔCD62p+ %: percentage increases in CD62p positive platelets [2, 10] [%]	ratio: % CD62p+ (with substance)/% CD62p+ (without) [2, 11]	ΔCD62p+ %: percentage increases in CD62p positive platelets [2, 11] [%]	platelet activation [2, 12]	further results
Sulfated 6-monoamino-6-monodeoxy β-cyclodextrin [MA-CDPS]	Minor decreases	5.2	74.8	5.5	69.9	1.4	9.6	3.5	17.4	1.9	16.7	8.2	32.6	3.5	51.1	3.1	63.6	induced platelet activation	–
Sulfated (2-carboxyethyl)-β-cyclodextrin [CE-CDPS]	Minor decreases	1.8	13.9	2.2	14.4	1.1	2.4	1.2	1.1	1.4	7.9	2.7	10.2	2.2	22.9	2.4	45.0	do not significantly activate platelets	cross-reactivity with the heparin/PF4 antibodies ([2]; paired analysis versus heparin, ratios and percentages of CD62p positive cells): no cross-reactivity; osteophyte growth [3, 13]: not inhibited; pannus formation [3, 13]: not inhibited; synovial inflammation [3, 13]: not inhibited; weight of the animals ([3]; 1 mg/kg subcutaneously once weekly, three weeks): did not affect; overall cartilage damage (Safranine O staining) ([3]; 1 mg/kg subcutaneously once weekly, versus PBS-treated): reduced; cartilage proteoglycan depletion in osteoarthritis knee joints ([3]; collagenase-induced knee-osteoarthritis in mice): prevented
Sulfated (2-hydroxypropyl)-β-cyclodextrin [HP-CDPS]	Minor decreases	4.9	67.6	5.1	53.0	1.0	0.1	1.1	1.2	2.1	23.3	4.7	17.1	4.6	63.2	2.8	60.7	induced platelet activation	–
heparin	–	4.2	45.5	2.2	14.3	2.8	45.6	3.9	15.1	4.3	60.3	8.2	42.3	2.7	34.8	2.8	56.4	–	platelet heparin activation ratios % CD62p+ (0.3 IU heparin)/% CD62p+ (0 IU heparin) ([2]; all HIT Ab positive plasma samples, the two donors): above 2; platelet activation ([2]; in the absence of patient's HIT Ab): not activated
